{"source": "patent US20230129721A1", "about": "“STABILIZER FOR RADIOPHARMACEUTICALS AND RADIOPHARMACEUTICAL COMPOSITION COMPRISING THE SAME” (THE ASAN FOUNDATION, priority 2020, published 2023)", "key": {"[1]": {"test": "pH (paper) of [^18F]PI-2620 radiopharmaceutical composition over time at 40° C.", "assay_type": "physicochemical"}, "[2]": {"test": "Radiochemical purity of [^18F]PI-2620 radiopharmaceutical composition over time at 40° C. by HPLC", "assay_type": "physicochemical", "experimental": "Fluoride ([^18F]) and 2 mg of a precursor were dissolved in dimethyl sulfoxide, and the reaction mixture was fluorinated using an SN2 reaction at a temperature of 100° C. or higher. Then, a protecting group was hydrolyzed with sulfuric acid, and the mixture was neutralized with sodium hydroxide, purified using high-performance liquid chromatography (HPLC) (purification conditions: Luna C18 250×10 mm, phosphate buffer:acetonitrile=70:30 (v/v), 5.0 mL/min, UV=254 nm), and then formulated (formulation composition: 100 mg of sodium ascorbate, 2 nM phosphate buffer, and 10% ethanol) to obtain the [^18F]PI-2620 compound having a radiochemical purity of 100% (FIG. 1).\n[^18F]PI-2620 was formulated with ethanol, ascorbic acid, and a phosphate buffer, and the radiochemical purity of the radiopharmaceutical composition was then measured at the elapsed times of 0 hour, 2 hours, 4 hours, and 6 hours at a temperature of 40° C. using HPLC (analysis conditions: Luna C18 250×4.6 mm, phosphate buffer:acetonitrile=60:40 (v/v), 1.0 mL/min, UV=254 nm).\n[^18F]PI-2620 was obtained as a compound having a radiochemical purity of 100% in the same manner as in Example 1. To further confirm the stability of the compound, 2 equivalents of sodium ascorbate used in Example 1 was added during a formulation process (formulation composition: 200 mg of sodium ascorbate, a 2 nM phosphate buffer, and 10% ethanol), and the radiochemical purity of the radiopharmaceutical composition was then measured in the same manner as in Example 1 at the elapsed times of 0 hour, 2 hours, 4 hours, and 6 hours at a temperature of 40° C. using high-performance liquid chromatography (HPLC)\n[^18F]PI-2620 was obtained as a compound having a radiochemical purity of 100% in the same manner as in Example 1. To check the causes of a decrease in radiochemical purity, the radiochemical purity of the radiopharmaceutical composition was then measured in the same manner as in Example 1 at the elapsed times of 0 hour, 2 hours, 4 hours, and 6 hours at a temperature of 40° C. under three formulation conditions (Condition 1: ethanol and water for injection (formulation composition: 10% ethanol); Condition 2: ethanol and a phosphate buffer (formulation composition: a 2 nM phosphate buffer and 10% ethanol); Condition 3: ethanol and a 2×phosphate buffer (formulation composition: a 4 nM phosphate buffer and 10% ethanol)) using high-performance liquid chromatography (HPLC).\n[^18F]PI-2620 was obtained as a compound having a radiochemical purity of 98% or more in the same manner as in Example 1. As a novel stabilizing agent, vitamin B1 (VB1), vitamin B6 (VB6), vitamin B8 (VB8), vitamin B10 (VB10), or vitamin B12 (VB12) (formulation composition: 10% ethanol and a 50 mg/mL vitamin concentration) was added to ethanol and water for injection, and the radiochemical purity of the radiopharmaceutical composition was measured in the same manner as in Example 1 at the elapsed times of 0 hour, 2 hours, 4 hours, and 6 hours at a temperature of 40° C. using high-performance liquid chromatography (HPLC). A preparation including no vitamin B was used as the control.\n[^18F]PI-2620 was obtained as a compound having a radiochemical purity of 98% or more in the same manner as in Example 1, and formulated with ethanol and a phosphate buffer (formulation composition: a 2 nM phosphate buffer and 10% ethanol). As a novel stabilizing agent, vitamin B1 (VB1), vitamin B6 (VB6), vitamin B8 (VB8), or vitamin B10 (VB10) was added at a concentration of 50 mg/mL, and the radiochemical purity of the radiopharmaceutical composition was measured in the same manner as in Example 1 at the elapsed times of 0 hour, 2 hours, 4 hours, and 6 hours at a temperature of 40° C. using high-performance liquid chromatography (HPLC). A preparation in which sodium ascorbate was added to the same concentrations of ethanol and phosphate buffer was used as the control. […]"}, "[3]": {"conditions": "2 nM phosphate buffer and 10% ethanol, vitamin 50 mg/mL (control: sodium ascorbate), 0 hr"}, "[4]": {"conditions": "2 nM phosphate buffer and 10% ethanol, vitamin 50 mg/mL (control: sodium ascorbate), 2 hr"}, "[5]": {"conditions": "2 nM phosphate buffer and 10% ethanol, vitamin 50 mg/mL (control: sodium ascorbate), 4 hr"}, "[6]": {"conditions": "2 nM phosphate buffer and 10% ethanol, vitamin 50 mg/mL (control: sodium ascorbate), 6 hr"}, "[7]": {"conditions": "10% ethanol, water for injection, 50 mg/mL vitamin, 0 hr"}, "[8]": {"conditions": "10% ethanol, water for injection, 50 mg/mL vitamin, 2 hr"}, "[9]": {"conditions": "10% ethanol, water for injection, 50 mg/mL vitamin, 4 hr"}, "[10]": {"conditions": "10% ethanol, water for injection, 50 mg/mL vitamin, 6 hr"}, "[11]": {"conditions": "[^18F]PI-2620, 2 nM phosphate buffer and 10% ethanol, vitamin 50 mg/mL (control: sodium ascorbate), 0 hr"}, "[12]": {"conditions": "[^18F]PI-2620, 2 nM phosphate buffer and 10% ethanol, vitamin 50 mg/mL (control: sodium ascorbate), 2 hr"}, "[13]": {"conditions": "[^18F]PI-2620, 2 nM phosphate buffer and 10% ethanol, vitamin 50 mg/mL (control: sodium ascorbate), 4 hr"}, "[14]": {"conditions": "[^18F]PI-2620, 2 nM phosphate buffer and 10% ethanol, vitamin 50 mg/mL (control: sodium ascorbate), 6 hr"}, "[15]": {"conditions": "[^18F]PI-2620, ethanol and water for injection (10% ethanol), 50 mg/mL vitamin, no phosphate buffer, 0 hr"}, "[16]": {"conditions": "[^18F]PI-2620, ethanol and water for injection (10% ethanol), 50 mg/mL vitamin, no phosphate buffer, 2 hr"}, "[17]": {"conditions": "[^18F]PI-2620, ethanol and water for injection (10% ethanol), 50 mg/mL vitamin, no phosphate buffer, 4 hr"}, "[18]": {"conditions": "[^18F]PI-2620, ethanol and water for injection (10% ethanol), 50 mg/mL vitamin, no phosphate buffer, 6 hr"}}, "data": [{"smiles": "Nc1ncnc2c1ncn2[C@@H]1O[C@H](COP(=O)(O)O)[C@@H](O)[C@H]1O", "note": "[VB8, adenosine phosphate]", "values": [{"measurement": "PH (paper)", "setting": "[1]; [3]", "result": 6}, {"measurement": "PH (paper)", "setting": "[1]; [4]", "result": 6}, {"measurement": "PH (paper)", "setting": "[1]; [5]", "result": 6}, {"measurement": "PH (paper)", "setting": "[1]; [6]", "result": 6}, {"measurement": "PH (paper)", "setting": "[1]; [7]", "result": 6}, {"measurement": "PH (paper)", "setting": "[1]; [8]", "result": 6}, {"measurement": "PH (paper)", "setting": "[1]; [9]", "result": 6}, {"measurement": "PH (paper)", "setting": "[1]; [10]", "result": 6}, {"measurement": "Purity (radiochemical purity)", "setting": "[2]; [11]", "result": 98.06, "unit": "%"}, {"measurement": "Purity (radiochemical purity)", "setting": "[2]; [12]", "result": 95.43, "unit": "%"}, {"measurement": "Purity (radiochemical purity)", "setting": "[2]; [13]", "result": 92.46, "unit": "%"}, {"measurement": "Purity (radiochemical purity)", "setting": "[2]; [14]", "result": 87.76, "unit": "%"}, {"measurement": "Purity (radiochemical purity)", "setting": "[2]; [15]", "result": 98.92, "unit": "%"}, {"measurement": "Purity (radiochemical purity)", "setting": "[2]; [16]", "result": 99.14, "unit": "%"}, {"measurement": "Purity (radiochemical purity)", "setting": "[2]; [17]", "result": 98.8, "unit": "%"}, {"measurement": "Purity (radiochemical purity)", "setting": "[2]; [18]", "result": 98.2, "unit": "%"}]}, {"smiles": "C/C1=C2/[N-][C@H]([C@H](CC(N)=O)[C@@]2(C)CCC(=O)NC[C@H](C)OP(=O)([O-])O[C@H]2[C@@H](O)[C@@H](n3cnc4cc(C)c(C)cc43)O[C@@H]2CO)[C@]2(C)N=C(/C(C)=C3N=C(/C=C4N=C1[C@@H](CCC(N)=O)C\\4(C)C)[C@@H](CCC(N)=O)[C@]\\3(C)CC(N)=O)[C@@H](CCC(N)=O)[C@]2(C)CC(N)=O.[Co+2]", "note": "(stereo in doubt) [VB12, cobalamin]", "values": [{"measurement": "PH (paper)", "setting": "[1]; [7]", "result": 6}, {"measurement": "PH (paper)", "setting": "[1]; [8]", "result": 7.5}, {"measurement": "PH (paper)", "setting": "[1]; [9]", "result": 6.5}, {"measurement": "PH (paper)", "setting": "[1]; [10]", "result": 6.5}, {"measurement": "Purity (radiochemical purity)", "setting": "[2]; [15]", "result": 98.33, "unit": "%"}, {"measurement": "Purity (radiochemical purity)", "setting": "[2]; [16]", "result": 98.99, "unit": "%"}, {"measurement": "Purity (radiochemical purity)", "setting": "[2]; [17]", "result": 98.7, "unit": "%"}, {"measurement": "Purity (radiochemical purity)", "setting": "[2]; [18]", "result": 98.29, "unit": "%"}]}, {"smiles": "Cc1ncc(C[n+]2csc(CCO)c2C)c(N)n1", "note": "[VB1, thiamine]", "values": [{"measurement": "PH (paper)", "setting": "[1]; 2 nM phosphate buffer and 10% ethanol, vitamin 0.78 mg/mL, 0 hr", "result": 6}, {"measurement": "PH (paper)", "setting": "[1]; 2 nM phosphate buffer and 10% ethanol, vitamin 0.78 mg/mL, 2 hr", "result": 6}, {"measurement": "PH (paper)", "setting": "[1]; 2 nM phosphate buffer and 10% ethanol, vitamin 0.78 mg/mL, 4 hr", "result": 6}, {"measurement": "PH (paper)", "setting": "[1]; 2 nM phosphate buffer and 10% ethanol, vitamin 0.78 mg/mL, 6 hr", "result": 6}, {"measurement": "PH (paper)", "setting": "[1]; [3]", "result": 5}, {"measurement": "PH (paper)", "setting": "[1]; [4]", "result": 5.5}, {"measurement": "PH (paper)", "setting": "[1]; [5]", "result": 5.5}, {"measurement": "PH (paper)", "setting": "[1]; [6]", "result": 5.5}, {"measurement": "PH (paper)", "setting": "[1]; [7]", "result": 8}, {"measurement": "PH (paper)", "setting": "[1]; [8]", "result": 7}, {"measurement": "PH (paper)", "setting": "[1]; [9]", "result": 7}, {"measurement": "PH (paper)", "setting": "[1]; [10]", "result": 7}, {"measurement": "Purity (radiochemical purity)", "setting": "[2]; [^18F]PI-2620, 2 nM phosphate buffer and 10% ethanol, vitamin 0.78 mg/mL, 0 hr", "result": 99.66, "unit": "%"}, {"measurement": "Purity (radiochemical purity)", "setting": "[2]; [^18F]PI-2620, 2 nM phosphate buffer and 10% ethanol, vitamin 0.78 mg/mL, 2 hr", "result": 99.21, "unit": "%"}, {"measurement": "Purity (radiochemical purity)", "setting": "[2]; [^18F]PI-2620, 2 nM phosphate buffer and 10% ethanol, vitamin 0.78 mg/mL, 4 hr", "result": 97.63, "unit": "%"}, {"measurement": "Purity (radiochemical purity)", "setting": "[2]; [^18F]PI-2620, 2 nM phosphate buffer and 10% ethanol, vitamin 0.78 mg/mL, 6 hr", "result": 97.12, "unit": "%"}, {"measurement": "Purity (radiochemical purity)", "setting": "[2]; [11]", "result": 98.79, "unit": "%"}, {"measurement": "Purity (radiochemical purity)", "setting": "[2]; [12]", "result": 98.46, "unit": "%"}, {"measurement": "Purity (radiochemical purity)", "setting": "[2]; [13]", "result": 98.97, "unit": "%"}, {"measurement": "Purity (radiochemical purity)", "setting": "[2]; [14]", "result": 98.94, "unit": "%"}, {"measurement": "Purity (radiochemical purity)", "setting": "[2]; [15]", "result": 98.92, "unit": "%"}, {"measurement": "Purity (radiochemical purity)", "setting": "[2]; [16]", "result": 98.97, "unit": "%"}, {"measurement": "Purity (radiochemical purity)", "setting": "[2]; [17]", "result": 99.1, "unit": "%"}, {"measurement": "Purity (radiochemical purity)", "setting": "[2]; [18]", "result": 98.94, "unit": "%"}]}, {"smiles": "[18F]c1cc(-c2ccc3c(n2)[nH]c2ccncc23)ccn1", "note": "[[^18F]PI-2620]", "values": [{"measurement": "Purity (radiochemical purity)", "setting": "[2]; [^18F]PI-2620 under three formulation conditions (ethanol with or without phosphate buffer), 6 hr", "result": "not decomposed at a high temperature"}]}]}
